According to patent US8410145B2, “Insecticidal compounds” (Syngenta Crop Protection LLC, priority 2007, dated 2013):

Assays:
Format in all cases: in vivo
[1] = system: Thrips tabaci (Onion Thrips); experiment: Thrips tabaci sunflower leaf disc spray test; conditions: foliar, 168 h, 200 ppm spray on sunflower leaf discs, population of mixed ages, mortality after 7 days
Text: (§1) Cotton leaf discs were placed on agar in a 24-well microtiter plate and sprayed with test solutions at an application rate of 200 ppm. After drying, the leaf discs were infested with 5 to L1 larvae. The samples were checked for mortality, feeding behavior, and growth regulation 3 days after treatment (DAT). The following compounds gave at least 80% control of Spodoptera littoralis: A1, A2, A3, A4, A6, A9, A10, A11, A12, A13, A14, A15, A16, A19, A20, A22, A23, A25, A26, A27, B1, B2, B3, B5, B6, B7, B8, B9, B11, B12, B13, B15, B16, B18, B19, B20, B21, B22, B24, B26, B27, B28, C1, C2, C3, C4, C5, C6, C7, C8, C9, C10, C12, C13, C16, C19, C20, C21, C22, C23, D1, D2, D3, D4, D5, D6, D7, D8, D9, D10, D11, D12, D13, D14, D15, D16, D17, D18, D19, D20, D21, D22, D23, D24. Heliothis virescens (Tobacco Budworm): Eggs (0-24 h old) were placed in 24-well microtiter plate on artificial diet and treated with test solutions at an application rate of 200 ppm (concentration in well 18 ppm) by pipetting. After an incubation period of 4 days, samples were checked for egg mortality, larval mortality, and growth regulation. The following compounds gave at least 80% control of Heliothis virescens: A1, A2, A3, A4, A13, A15, A17, A19, A20, A22, A23, A25, A26, A28, B1, B2, B3, B5, B6, B7, B9, B11, B13, B15, B18, B19, B20, B21, B25, B26, B27, B28, C1, C2, C3, C4, C5, C6, C7, C8, C9, C10, C12, C14, C16, C17, C19, C20, C21, C22, D1, D2, D3, D4, D5, D6, D7, D8, D9, D10, D11, D12, D13, D14, D15, D16, D17, D18, D19, D20, D21, D22, D23, E1, E2, E3, E4, E5. Plutella xylostella (Diamond Back Moth): 24-well microtiter plate (MTP) with artificial diet was treated with test solutions at an application rate of 200 ppm (concentration in well 18 ppm) by pipetting. After drying, the MTP's were infested with L2 larvae (7-12 per well). After an incubation period of 6 days, samples were checked for larval mortality and growth regulation. The following compounds gave at least 80% control of Plutella xylostella: A1, A3, A4, A10, All, A15, A19, A23, A25, B1, B2, B3, B5, B6, B7, B8, B9, B11, B13, B15, B18, B19, B20, B21, B26, B27, B28, C1, C2, C3, C4, C6, C7, C8, C9, C12, C16, C19, C20, C22, D1, D2, D3, D4, D5, D6, D7, D8, D9, D10, D12, D13, D14, D15, D16, D17, D18, D19, D20, D21, D22, D23, E1, E3, E5. Diabrotica balteata (Corn Root Worm): A 24-well microtiter plate (MTP) with artificial diet was treated with test solutions at an application rate of 200 ppm (concentration in well 18 ppm) by pipetting. After drying, the MTP's were infested with L2 larvae (6-10 per well). After an incubation period of 5 days, samples were checked for larval mortality and growth regulation. The following compounds gave at least 80% control of Diabrotica balteata: A2, A3, A4, A9, A11, A12, A13, A14, A15, A17, A19, A21, A22, A23, A24, A25, A26, B1, B2, B3, B6, B7, B8, B11, B13, B14, B15, B18, B19, B20, B21, B22, B26, B28, C1, C2, C3, C4, C5, C6, C7, C8, C9, C10, C12, C14, C15, C16, C19, C20, C21, C22, C23, C26, D1, D2, D4, D5, D6, D7, D8, D9, D10, D12, D14, D15, D16, D17, D18, D19, D20, D21, D22, D23, E2, E3, E5. Thrips tabaci (Onion Thrips): Sunflower leaf discs were placed on agar in a 24-well microtiter plate and sprayed with test solutions at an application rate of 200 ppm. After drying, the leaf discs were infested with an […] population of mixed ages. After an incubation period of 7 days, samples were checked for mortality. The following compounds gave at least 80% control of Thrips tabaci: B1, B7, B11, B15, B18, B19, B28, D1, D2, D3, D4, D5, D6, D7, D8, D9, D10, D12, D16, D18, D19, D20, D21, D23. Tetranychus urticae (Two-Spotted Spider Mite): Bean leaf discs on agar in 24-well microtiter plates were sprayed with test solutions at an application rate of 200 ppm. After drying, the leaf discs are infested with mite populations of mixed ages. 8 days later, discs are checked for egg mortality, larval mortality, and adult mortality. […]

[2] = system: Tetranychus urticae (Two-Spotted Spider Mite); experiment: Tetranychus urticae bean leaf disc spray test; conditions: foliar, 192 h, 200 ppm spray on bean leaf discs, mite populations of mixed ages, egg, larval and adult mortality 8 days later
Text: as §1

[3] = system: Heliothis virescens (Tobacco Budworm); experiment: Heliothis virescens egg test on artificial diet; conditions: 96 h, 200 ppm (concentration in well 18 ppm), eggs 0-24 h old on artificial diet, egg mortality, larval mortality, growth regulation after 4 days
Text: as §1

[4] = system: Plutella xylostella (Diamond Back Moth); experiment: Plutella xylostella larvae test on artificial diet; conditions: 144 h, 200 ppm (concentration in well 18 ppm), L2 larvae, larval mortality and growth regulation after 6 days
Text: as §1

[5] = system: Spodoptera littoralis (Egyptian Cotton Leafworm); experiment: Spodoptera littoralis cotton leaf disc spray test; conditions: foliar, 72 h, 200 ppm spray on cotton leaf discs, L1 larvae, mortality, feeding behavior, growth regulation 3 DAT
Text: as §1

[6] = system: Diabrotica balteata (Corn Root Worm); experiment: Diabrotica balteata larvae test on artificial diet; conditions: 120 h, 200 ppm (concentration in well 18 ppm), L2 larvae, larval mortality and growth regulation after 5 days
Text: as §1

[7] = system: Spodoptera littoralis, Heliothis virescens, Plutella xylostella, Diabrotica balteata, Thrips tabaci, Tetranychus urticae; experiment: Pesticidal tests, same protocols (all six pests taken together); conditions: same protocols as b207 (200 ppm), under the test conditions
Text: as §1

Structure (SMILES): N#Cc1ccc(C2=NOC(c3cc(Cl)cc(Cl)c3)(C(F)(F)F)C2)cc1NC(=O)c1ccccc1Cl (stereo not shown) [D7]
- pest or weed control at 200 ppm [1]: ≥ 80%
- pest or weed control at 200 ppm [2]: ≥ 80%
- pest or weed control at 200 ppm [3]: ≥ 80%
- pest or weed control at 200 ppm [4]: ≥ 80%
- pest or weed control at 200 ppm [5]: ≥ 80%
- pest or weed control at 200 ppm [6]: ≥ 80%

Structure (SMILES): COc1ccccc1C(=O)Nc1cccc(C2=NOC(c3cc(Cl)cc(Cl)c3)(C(F)(F)F)C2)c1F (stereo not shown) [B15]
- pest or weed control at 200 ppm [1]: ≥ 80%
- pest or weed control at 200 ppm [3]: ≥ 80%
- pest or weed control at 200 ppm [4]: ≥ 80%
- pest or weed control at 200 ppm [5]: ≥ 80%
- pest or weed control at 200 ppm [6]: ≥ 80%

Structure (SMILES): N#Cc1ccc(C(=O)Nc2cccc(C3=NOC(c4cc(Cl)cc(Cl)c4)(C(F)(F)F)C3)c2)cc1 (stereo not shown) [A4, 4-cyano-N-{3-[5-(3,5-dichloro-phenyl)-5-trifluoromethyl-4,5-dihydro-isoxazol-3-yl]phenyl}-benzamide]
- pest or weed control at 200 ppm [2]: ≥ 80%
- pest or weed control at 200 ppm [3]: ≥ 80%
- pest or weed control at 200 ppm [4]: ≥ 80%
- pest or weed control at 200 ppm [5]: ≥ 80%
- pest or weed control at 200 ppm [6]: ≥ 80%

Structure (SMILES): N#Cc1ccc(C2=NOC(c3cc(Cl)cc(Cl)c3)(C(F)(F)F)C2)cc1NC(=O)c1ccccc1 (stereo not shown) [D2]
- pest or weed control at 200 ppm [1]: ≥ 80%
- pest or weed control at 200 ppm [2]: ≥ 80%
- pest or weed control at 200 ppm [3]: ≥ 80%
- pest or weed control at 200 ppm [4]: ≥ 80%
- pest or weed control at 200 ppm [5]: ≥ 80%
- pest or weed control at 200 ppm [6]: ≥ 80%

Structure (SMILES): Cc1ccc(C(=O)Nc2cc(C3=NOC(c4cc(Cl)cc(Cl)c4)(C(F)(F)F)C3)ccc2C#N)cc1 (stereo not shown) [D9]
- pest or weed control at 200 ppm [1]: ≥ 80%
- pest or weed control at 200 ppm [2]: ≥ 80%
- pest or weed control at 200 ppm [3]: ≥ 80%
- pest or weed control at 200 ppm [4]: ≥ 80%
- pest or weed control at 200 ppm [5]: ≥ 80%
- pest or weed control at 200 ppm [6]: ≥ 80%

Structure (SMILES): Cc1ccc(C(=O)Nc2cc(C3=NOC(c4cc(Cl)cc(Cl)c4)(C(F)(F)F)C3)ccc2F)cc1 (stereo not shown) [C9]
- pest or weed control at 200 ppm [2]: ≥ 80%
- pest or weed control at 200 ppm [3]: ≥ 80%
- pest or weed control at 200 ppm [4]: ≥ 80%
- pest or weed control at 200 ppm [5]: ≥ 80%
- pest or weed control at 200 ppm [6]: ≥ 80%

Structure (SMILES): N#Cc1ccc(C2=NOC(c3cc(Cl)cc(Cl)c3)(C(F)(F)F)C2)cc1NC(=O)c1ccc([N+](=O)[O-])cc1 (stereo not shown) [D8]
- pest or weed control at 200 ppm [1]: ≥ 80%
- pest or weed control at 200 ppm [2]: ≥ 80%
- pest or weed control at 200 ppm [3]: ≥ 80%
- pest or weed control at 200 ppm [4]: ≥ 80%
- pest or weed control at 200 ppm [5]: ≥ 80%
- pest or weed control at 200 ppm [6]: ≥ 80%

Structure (SMILES): N#Cc1ccc(C(=O)Nc2cccc(C3=NOC(c4cc(Cl)cc(Cl)c4)(C(F)(F)F)C3)c2F)cc1 (stereo not shown) [B4]
- effect on mortality, feeding behavior, or growth regulation [7]: little or no effect

Structure (SMILES): O=C(Nc1cccc(C2=NOC(c3cc(Cl)cc(Cl)c3)(C(F)(F)F)C2)c1F)c1ccc([N+](=O)[O-])cc1 (stereo not shown) [B5]
- pest or weed control at 200 ppm [2]: ≥ 80%
- pest or weed control at 200 ppm [3]: ≥ 80%
- pest or weed control at 200 ppm [4]: ≥ 80%
- pest or weed control at 200 ppm [5]: ≥ 80%

Structure (SMILES): N#Cc1ccc(C2=NOC(c3cc(Cl)cc(Cl)c3)(C(F)(F)F)C2)cc1NC(=O)c1ccc(F)cc1F (stereo not shown) [D23]
- pest or weed control at 200 ppm [1]: ≥ 80%
- pest or weed control at 200 ppm [3]: ≥ 80%
- pest or weed control at 200 ppm [4]: ≥ 80%
- pest or weed control at 200 ppm [5]: ≥ 80%
- pest or weed control at 200 ppm [6]: ≥ 80%

Structure (SMILES): O=C(Nc1cccc(C2=NOC(c3cc(Cl)cc(Cl)c3)(C(F)(F)F)C2)c1F)c1ccccc1F (stereo not shown) [B1]
- pest or weed control at 200 ppm [1]: ≥ 80%
- pest or weed control at 200 ppm [3]: ≥ 80%
- pest or weed control at 200 ppm [4]: ≥ 80%
- pest or weed control at 200 ppm [5]: ≥ 80%
- pest or weed control at 200 ppm [6]: ≥ 80%

Structure (SMILES): O=C(Nc1cc(C2=NOC(c3cc(Cl)cc(Cl)c3)(C(F)(F)F)C2)ccc1F)c1cc(C(F)(F)F)ccc1F (racemic) [C25]
- effect on mortality, feeding behavior, or growth regulation [7]: little or no effect

Structure (SMILES): Cc1ccccc1C(=O)Nc1cc(C2=NOC(c3cc(Cl)cc(Cl)c3)(C(F)(F)F)C2)ccc1C#N (stereo not shown) [D6]
- pest or weed control at 200 ppm [1]: ≥ 80%
- pest or weed control at 200 ppm [2]: ≥ 80%
- pest or weed control at 200 ppm [3]: ≥ 80%
- pest or weed control at 200 ppm [4]: ≥ 80%
- pest or weed control at 200 ppm [5]: ≥ 80%
- pest or weed control at 200 ppm [6]: ≥ 80%

Structure (SMILES): N#Cc1ccc(C(=O)Nc2cc(C3=NOC(c4cc(Cl)cc(Cl)c4)(C(F)(F)F)C3)ccc2C#N)cc1 (stereo not shown) [D1]
- pest or weed control at 200 ppm [1]: ≥ 80%
- pest or weed control at 200 ppm [2]: ≥ 80%
- pest or weed control at 200 ppm [3]: ≥ 80%
- pest or weed control at 200 ppm [4]: ≥ 80%
- pest or weed control at 200 ppm [5]: ≥ 80%
- pest or weed control at 200 ppm [6]: ≥ 80%

Structure (SMILES): COc1ccccc1C(=O)Nc1cc(C2=NOC(c3cc(Cl)cc(Cl)c3)(C(F)(F)F)C2)ccc1F (stereo not shown) [C18]
- effect on mortality, feeding behavior, or growth regulation [7]: little or no effect

Structure (SMILES): O=C(Nc1cccc(C2=NOC(c3cc(Cl)cc(Cl)c3)(C(F)(F)F)C2)c1F)c1cc(C(F)(F)F)ccc1F (racemic) [B23]
- effect on mortality, feeding behavior, or growth regulation [7]: little or no effect

Structure (SMILES): O=C(Nc1cc(C2=NOC(c3cc(Cl)cc(Cl)c3)(C(F)(F)F)C2)ccc1F)c1ccc(F)cc1F (stereo not shown) [C24]
- effect on mortality, feeding behavior, or growth regulation [7]: little or no effect

Structure (SMILES): N#Cc1ccc(C2=NOC(c3cc(Cl)cc(Cl)c3)(C(F)(F)F)C2)cc1NC(=O)c1ccc(F)cc1 (stereo not shown) [D18]
- pest or weed control at 200 ppm [1]: ≥ 80%
- pest or weed control at 200 ppm [2]: ≥ 80%
- pest or weed control at 200 ppm [3]: ≥ 80%
- pest or weed control at 200 ppm [4]: ≥ 80%
- pest or weed control at 200 ppm [5]: ≥ 80%
- pest or weed control at 200 ppm [6]: ≥ 80%

Structure (SMILES): N#Cc1ccc(C2=NOC(c3cc(Cl)cc(Cl)c3)(C(F)(F)F)C2)cc1NC(=O)c1ccccc1F (stereo not shown) [D5]
- pest or weed control at 200 ppm [1]: ≥ 80%
- pest or weed control at 200 ppm [3]: ≥ 80%
- pest or weed control at 200 ppm [4]: ≥ 80%
- pest or weed control at 200 ppm [5]: ≥ 80%
- pest or weed control at 200 ppm [6]: ≥ 80%

Structure (SMILES): COCC(=O)Nc1cccc(C2=NOC(c3cc(Cl)cc(Cl)c3)(C(F)(F)F)C2)c1 (stereo not shown) [A7]
- effect on mortality, feeding behavior, or growth regulation [7]: little or no effect
